Assay [1] deals with HIV-1GB8. Kind of assay: Infectivity titration of cell-free supernatant from HIV-1GB8 infected JM cells. The format is cell-based. The source says: (§1) Inhibition of the maturation of envelope glycoproteins gp 160 and gp 120 in human HIV by α-glucosidase I inhibitors result in reductions in infectivity and syncytial formation of the HIV virus. AIDS, Vol. 5(6): 693-698 (1991). Therefore, in order to test the antiviral activity of the compounds of the present invention, the following protocol was followed.
(§2) JM cells were infected with HIV-1GB8 for one hour at room temperature. The cells were then washed and subsequently grown in the presence of varying concentrations of test compound or no compound (control). […] The cell-free supernatant fluid was then titrated for levels of infectivity.
Infectivity is expressed as log10 determined by the highest dilution of cell-free medium at which syncytia was detected. The results in Table 1 were found.

In assay [2] the test system is HIV-1GB8. Kind of assay: Inhibition of syncytia formation in JM cells infected with HIV-1GB8 (3 days incubation, 37° C.). The class given is cell-based. On the set-up: unit not given here. To be noted: HIV-1GB8, 3 days at 37° C.
Text: as §1, §2
ED50 means 50% effective dose corresponds to the concentration of inhibitor required to lower the syncytia counts by 50%.

[3] abbreviates: Human immunodeficiency virus 1, 72 h, Conc 0.06 mM, read-out: % Control.
Where [4] appears, read: Human immunodeficiency virus 1, 72 h, Conc 0.125 mM, read-out: % Control.
Where [5] appears, read: Conc 0.5 mM, control 10^3 (Example 44) or 10^4 (Example 43).
The mark [6] stands for this setting: Human immunodeficiency virus 1, 72 h, Conc 0.5 mM, read-out: % Control.

Consider `C[Si](C)(C)c1ccc(CN2C[C@H](O)[C@@H](O)[C@H](O)[C@H]2CO)cc1` [Example 46, 1,5-dideoxy-1,5-[{[4-(trimethylsilyl)phenyl]methyl}imino]-D-glucitol], for which the “Infectivity (highest dilution of cell-free medium at which syncytia was detected)” value is listed as 10^3 with HIV-1GB8 [1] (Conc 0.06 mM, control 10^4) and 10^2 in the assay with HIV-1GB8 [1] (Conc 0.125 mM, control 10^4). Further, the activity at 60 µM with HIV-1GB8 [1] (setting [3]) turned out to be 55%. For the same molecule, the activity at 125 µM in the assay on HIV-1GB8 [1] (setting [4]) worked out at 28%. Also, the “ED50 (concentration required to lower the syncytia counts by 50%)” value with HIV-1GB8 [2] was determined as 10.

Take `CC[Si](C)(C)CN1C[C@H](O)[C@@H](O)[C@H](O)[C@H]1CO` [Example 60, 1,5-Dideoxy-1,5-{[(Ethyldimethylsilyl)-Methyl]Imino}-D-Glucitol]: in the assay with HIV-1GB8 [2], the “ED50 (concentration required to lower the syncytia counts by 50%)” value is recorded as 18.

Take `C[Si](C)(C)/C=C/CN1C[C@H](O)[C@@H](O)[C@H](O)[C@H]1CO` [Example 40, 1,5-dideoxy-1,5-{[(E)-3-(trimethylsilyl)-2-propenyl]imino}-D-glucitol]: the “Infectivity (highest dilution of cell-free medium at which syncytia was detected)” value in the assay on HIV-1GB8 [1] (Conc 0.06 mM, control 10^4) is given as 10^3; in the assay with HIV-1GB8 [1] (Conc 0.125 mM, control 10^4) it was 10^2. The activity at 60 µM with HIV-1GB8 [1] (setting [3]) came to 79%. In the assay on HIV-1GB8 [1] (setting [4]), the activity at 125 µM stood at 23%. The “ED50 (concentration required to lower the syncytia counts by 50%)” value in the assay on HIV-1GB8 [2] was found to be 20.

As to `C[Si](C)(C)CCCN1C[C@H](O)[C@@H](O)[C@H](O)[C@H]1CO` [Example 44, 1,5-Dideoxy-1,5-{[3-(trimethylsilyl)propyl]imino}-D-glucitol], in the assay with HIV-1GB8 [1] (setting [5]), the “Infectivity (highest dilution of cell-free medium at which syncytia was detected)” value was 10^1. Also, the activity at 500 µM in the assay with HIV-1GB8 [1] (setting [6]) was 0%.

For `C[Si](C)(C)c1cccc(CN2C[C@H](O)[C@@H](O)[C@H](O)[C@H]2CO)c1` [Example 43, 1,5-Dideoxy-1,5-[{[3-(Trimethylsilyl)Phenyl]Methyl}Imino]-D-Glucitol], the “Infectivity (highest dilution of cell-free medium at which syncytia was detected)” value in the assay with HIV-1GB8 [1] (Conc 0.25 mM, control 10^4) is 10^4; with HIV-1GB8 [1] (setting [5]), 10^4. In the assay on HIV-1GB8 [1] (Human immunodeficiency virus 1, 72 h, Conc 0.25 mM, read-out: % Control), the activity at 250 µM came to 100%. Also, the activity at 500 µM with HIV-1GB8 [1] (setting [6]) amounted to 100%. Besides, the “ED50 (concentration required to lower the syncytia counts by 50%)” value in the assay with HIV-1GB8 [2] is given as more than 250.

Regarding `C[Si](C)(C)CCCCCCN1C[C@H](O)[C@@H](O)[C@H](O)[C@H]1CO` [Example 52, 1,5-Dideoxy-1,5-{[6-(Trimethylsilyl)Hexyl]Imino}-D-Glucitol], the “ED50 (concentration required to lower the syncytia counts by 50%)” value in the assay on HIV-1GB8 [2] amounted to 33.

As to `C[Si](C)(C)CCCCN1C[C@H](O)[C@@H](O)[C@H](O)[C@H]1CO` [Example 36, 1,5-dideoxy-1,5-{[4-(trimethylsilyl)butyl]imino}-D-glucitol], the “Infectivity (highest dilution of cell-free medium at which syncytia was detected)” value was 10^3 in the assay on HIV-1GB8 [1] (Conc 0.06 mM, control 10^4) and 10^3 in the assay on HIV-1GB8 [1] (Conc 0.125 mM, control 10^4). In addition, the activity at 60 µM in the assay on HIV-1GB8 [1] (setting [3]) stood at 73%. Moreover, the activity at 125 µM with HIV-1GB8 [1] (setting [4]) was 37%.

On to `CC(C)(C)[Si](C)(C)/C=C/CN1C[C@H](O)[C@@H](O)[C@H](O)[C@H]1CO` [Example 55, 1,5-Dideoxy-1,5-{[(E)-3-(t-butyldimethylsilyl)-2-propenyl]imino}-D-glucitol], for which, in the assay with HIV-1GB8 [2], the “ED50 (concentration required to lower the syncytia counts by 50%)” value was 45.

On to `CC(C)(C)[Si](C)(C)/C=C\CN1C[C@H](O)[C@@H](O)[C@H](O)[C@H]1CO` [Example 59, 1,5-Dideoxy-1,5-{[(Z)-3-(t-butyldimethylsilyl)-2-propenyl]-imino-}-D-glucitol], for which the “ED50 (concentration required to lower the syncytia counts by 50%)” value in the assay with HIV-1GB8 [2] came out at 190.

For the molecule `C[Si](C)(C)/C=C\CN1C[C@H](O)[C@@H](O)[C@H](O)[C@H]1CO` [Example 54, 1,5-dideoxy-1,5-{[(Z)-3-(trimethylsilyl)-2-propenyl]imino}-D-glucitol], the “ED50 (concentration required to lower the syncytia counts by 50%)” value in the assay on HIV-1GB8 [2] turned out to be 310.

For `C[Si](C)(C)CCCCCN1C[C@H](O)[C@@H](O)[C@H](O)[C@H]1CO` [Example 49, 1,5-dideoxy-1,5-{[5-(trimethylsilyl)pentyl]imino}-D-glucitol], the “Infectivity (highest dilution of cell-free medium at which syncytia was detected)” value in the assay on HIV-1GB8 [1] (Conc 0.006 mM, control 10^3) was 10^2; with HIV-1GB8 [1] (Conc 0.012 mM, control 10^3) it was 10^1. For the same molecule, in the assay on HIV-1GB8 [1] (Human immunodeficiency virus 1, 72 h, Conc 0.006 mM, read-out: % Control), the activity at 6 µM was 63%. Besides, the activity at 12 µM in the assay on HIV-1GB8 [1] (Human immunodeficiency virus 1, 72 h, Conc 0.012 mM, read-out: % Control) was 24%.

As for `C[Si](C)(C)CN1C[C@H](O)[C@@H](O)[C@H](O)[C@H]1CO` [Example 32, 1,5-dideoxy-1,5-{[(trimethylsilyl)methyl]imino}-D-glucitol], in the assay on HIV-1GB8 [2], the “ED50 (concentration required to lower the syncytia counts by 50%)” value is reported as 540.

Consider `C[Si](C)(CCCCN1C[C@H](O)[C@@H](O)[C@H](O)[C@H]1CO)c1ccccc1` [Example 53, 1,5-dideoxy-1,5-{[4-(dimethylphenylsilyl)butyl]imino}-D-glucitol], for which the “ED50 (concentration required to lower the syncytia counts by 50%)” value in the assay on HIV-1GB8 [2] was 12.

Values taken from US5536732A, “N-derivatives of 1-deoxy nojirimycin” (Merrell Pharmaceuticals Inc., priority 1990, dated 1996).
